Our source for the Km values is patent US20040039530A1, “Pharmacokinetic tool and method for predicting metabolism of a compound in a mammal” (priority 2003, published 2004).

A word on the Km: it is the substrate concentration at which the rate is half of its maximum.

A short description of the data set: Hepatocyte assay: concentration versus time data of parent compound, fitted for Km, Vmax and Kd. Here is the method: Traditionally, initial experiments were performed to get a “ball park” number around the Km, then additional studies performed “near” that concentration. A data analyst, or fitting expert, then took the data and determined the Km and Vmax. Some expertise is required to be able to interpret the initial studies and then to fit the data to determine Km. […] Especially preferred concentrations are 0.4, 2, 10, 50, 125 and 250 μM.
Equation 1 is the equation that incorporates transport and makes the assumption that the changes in concentration with time cannot be fully explained using the Michaelis-Menten equation alone. Kd·C is the transport term where Kd is the first order rate constant and C is the concentration outside of the hepatocyte or cell. dC/dt is the rate of metabolism, Vmax is the maximum possible rate of metabolism and Km is the Michaelis-Menten constant defined as concentration where dC/dt equals ½*Vmax. [formula]
The best fit lines and simulated data are obtained using a minimization algorithm capable of determining Vmax, Km, and Kd values that provide minimum deviation of the simulated data from the experimental data. In this example the minimization algorithms were completed using the computer based application, Kinetica®.
Briefly, the minimization algorithms uses the main function “mrqmin” that relies on several other functions to complete the analysis. This function assignees different initial conditions to fitted variables and picks the best set of results based on the minimal value of the computed “sum of squares”. Some statistical information can be collected in this routine as well. The “mrqmin” function performs one iteration of Marquardt method. Algorithmically, it is the same as listed in Numerical Recipes with modifications to parameter input, output and exchanges, and some modifications to intermediate computations. The “mrqmin” calls “mrqcof” function for some intermediate computations. […]
Goodness of fit is determined by evaluation of % CV, and percent unchanged parent compounds remaining at 240 minutes at 0.4 μM.

In the case of `Oc1ccc2c3c1O[C@H]1[C@@H](O)CC[C@@]4(O)[C@@H](C2)N(CC2CCC2)CC[C@]314` [Nalbuphine], the Km by setting is: (Initial concentrations, hepatocyte assay) 12.2 µM; (Std (standardized) concentrations, hepatocyte assay) 10.9 µM; (determined by non-linear fitting and minimization, compound-specific initial concentrations (Table 9)) 10 to 50 µM.
